Data as given in PubChem BioAssay (NCI).
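Tested at 5 concentrations; 48 h exposure; 96-well plates; endpoints linearly interpolated, else capped at highest concentration. GI50: concentration for 50% inhibition of growth. Definition used: TGI = concentration required for complete inhibition of growth.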

How the values were obtained:
Experiment in all cases: NCI anticancer screen, dose series, 48 h
[1] = tested on: 786-0 renal
[2] = tested on: A498 renal
[3] = tested on: A549 NSCLC
[4] = tested on: ACHN renal
[5] = tested on: BT-549 breast
[6] = tested on: CAKI-1 renal
[7] = tested on: CCRF-CEM leukemia
[8] = tested on: COLO 205 colon
[9] = tested on: DU-145 prostate
[10] = tested on: EKVX NSCLC
[11] = tested on: HCC-2998 colon
[12] = tested on: HCT-116 colon
[13] = tested on: HCT-15 colon
[14] = tested on: HL-60(TB) leukemia
[15] = tested on: HOP-62 NSCLC
[16] = tested on: HOP-92 NSCLC
[17] = tested on: HS 578T breast
[18] = tested on: HT29 colon
[19] = tested on: IGROV1 ovarian
[20] = tested on: K-562 leukemia
[21] = tested on: KM12 colon
[22] = tested on: LOX IMVI melanoma
[23] = tested on: M14 melanoma
[24] = tested on: MALME-3M melanoma
[25] = tested on: MCF7 breast
[26] = tested on: MDA-MB-231 breast
[27] = tested on: MDA-MB-435
[28] = tested on: MOLT-4 leukemia
[29] = tested on: NCI-H226 lung

Q: For `COc1cc(/C=C/C(=O)c2cccc(-n3cc(-c4ccccc4)[nH]c3=O)c2)cc(OC)c1OC`, which GI50 [1] is on record?
A: The GI50 was 1380 nM.

Q: What about the TGI [1] of the same compound?
A: Its TGI is 2970 nM.

Q: What about the GI50 [2] of the same compound?
A: Its GI50 is 2650 nM.

Q: And the TGI [2]?
A: The TGI was 6630 nM.

Q: And the GI50 [3]?
A: The GI50 was 4030 nM.

Q: What about the TGI [3] of the same compound?
A: The TGI was greater than 100000 nM.

Q: And the GI50 [4]?
A: Its GI50 is 1600 nM.

Q: And the TGI [4]?
A: Its TGI is 3210 nM.

Q: What about the GI50 [5] of the same compound?
A: The GI50 was 1930 nM.

Q: What about the TGI [5] of the same compound?
A: The TGI was 5470 nM.

Q: And the GI50 [6]?
A: The GI50 was 1750 nM.

Q: What about the TGI [6] of the same compound?
A: Its TGI is 4570 nM.

Q: And the GI50 [7]?
A: Its GI50 is 640 nM.

Q: What about the TGI [7] of the same compound?
A: Its TGI is greater than 100000 nM.

Q: What about the GI50 [8] of the same compound?
A: The GI50 was 1510 nM.

Q: What about the TGI [8] of the same compound?
A: The TGI was 2830 nM.

Q: And the GI50 [9]?
A: The GI50 was 2160 nM.

Q: What about the TGI [9] of the same compound?
A: The TGI was 7850 nM.

Q: What about the GI50 [10] of the same compound?
A: Its GI50 is 2300 nM.

Q: What about the TGI [10] of the same compound?
A: The TGI was 11400 nM.

Q: What about the GI50 [11] of the same compound?
A: The GI50 was 1260 nM.

Q: And the TGI [11]?
A: Its TGI is 2510 nM.

Q: What about the GI50 [12] of the same compound?
A: Its GI50 is 332 nM.

Q: And the TGI [12]?
A: Its TGI is 1200 nM.

Q: And the GI50 [13]?
A: The GI50 was 1130 nM.

Q: And the TGI [13]?
A: The TGI was 5700 nM.

Q: What about the GI50 [14] of the same compound?
A: Its GI50 is 2900 nM.

Q: What about the TGI [14] of the same compound?
A: Its TGI is greater than 100000 nM.

Q: And the GI50 [15]?
A: The GI50 was 4120 nM.

Q: And the TGI [15]?
A: Its TGI is 13600 nM.

Q: What about the GI50 [16] of the same compound?
A: Its GI50 is 10800 nM.

Q: What about the TGI [16] of the same compound?
A: Its TGI is 35600 nM.

Q: What about the GI50 [17] of the same compound?
A: Its GI50 is 3410 nM.

Q: What about the TGI [17] of the same compound?
A: The TGI was 27100 nM.

Q: And the GI50 [18]?
A: The GI50 was 662 nM.

Q: What about the TGI [18] of the same compound?
A: The TGI was 1850 nM.

Q: And the GI50 [19]?
A: Its GI50 is 2000 nM.

Q: What about the TGI [19] of the same compound?
A: Its TGI is 4700 nM.

Q: What about the GI50 [20] of the same compound?
A: The GI50 was 502 nM.

Q: And the TGI [20]?
A: Its TGI is greater than 100000 nM.

Q: And the GI50 [21]?
A: The GI50 was 1370 nM.

Q: What about the TGI [21] of the same compound?
A: Its TGI is 2660 nM.

Q: What about the GI50 [22] of the same compound?
A: The GI50 was 489 nM.

Q: And the TGI [22]?
A: Its TGI is 1670 nM.

Q: What about the GI50 [23] of the same compound?
A: The GI50 was 1350 nM.

Q: What about the TGI [23] of the same compound?
A: The TGI was 2720 nM.

Q: And the GI50 [24]?
A: Its GI50 is 1310 nM.

Q: What about the TGI [24] of the same compound?
A: Its TGI is 3560 nM.

Q: And the GI50 [25]?
A: The GI50 was 310 nM.

Q: And the TGI [25]?
A: Its TGI is 1120 nM.

Q: What about the GI50 [26] of the same compound?
A: Its GI50 is 2170 nM.

Q: What about the TGI [26] of the same compound?
A: Its TGI is 6180 nM.

Q: What about the GI50 [27] of the same compound?
A: The GI50 was 1200 nM.

Q: What about the TGI [27] of the same compound?
A: Its TGI is 5350 nM.

Q: What about the GI50 [28] of the same compound?
A: The GI50 was 1800 nM.

Q: And the TGI [28]?
A: Its TGI is greater than 100000 nM.

Q: What about the GI50 [29] of the same compound?
A: The GI50 was 14600 nM.

Q: What about the TGI [29] of the same compound?
A: Its TGI is 97400 nM.
